The text below walks through data of PubChem BioAssay (NCI).

Some test systems named below: UO-31 renal; ACHN renal; SK-MEL-28 melanoma; NCI-H226 lung; TK-10 renal; OVCAR-8 ovarian; SF-539 CNS; CCRF-CEM leukemia; BT-549 breast.
What all share (test): growth of human tumour cells (NCI), 48 h

SMILES strings stand for the structures.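 Each compound was tested at five concentrations against cells in 96-well plates for 48 hours. Abbreviation: GI50, concentration required for 50% inhibition of growth. At the TGI there is no net growth.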

In the case of `OC(c1cc2c(Cl)cc(Cl)cc2c2cc(C(F)(F)F)ccc12)C1CCCCN1` (stereo unspecified), the GI50 in the experiment on UO-31 renal was 1410 nM; in the experiment on ACHN renal, 1820 nM; in the experiment with SK-MEL-28 melanoma, 1960 nM; in the experiment on NCI-H226 lung, 1730 nM; with TK-10 renal it was 2000 nM. Also, the TGI in the experiment with UO-31 renal is 2.99 µM; in the experiment with ACHN renal it was 3.65 µM; in the experiment on SK-MEL-28 melanoma, 3.62 µM; with NCI-H226 lung, 3.56 µM; in the experiment on TK-10 renal, 3.63 µM.
Consider `O=C1CCC(=O)C12CCc1ccccc12`, for which the TGI in the experiment on UO-31 renal, in the experiment with ACHN renal, in the experiment with SK-MEL-28 melanoma, in the experiment on OVCAR-8 ovarian and in the experiment with TK-10 renal was greater than 100 µM each time.
Consider `CC1(C)OC(=O)C(c2ccsc2)C(=O)O1`, for which the TGI in the experiment with UO-31 renal, with ACHN renal, with SK-MEL-28 melanoma, with NCI-H226 lung, with OVCAR-8 ovarian and in the experiment with SF-539 CNS was greater than 100 µM throughout. Moreover, the TGI in the experiment on TK-10 renal and with CCRF-CEM leukemia was greater than 100 µM throughout.
For `COC(=O)C1=CCS(=O)(=O)C1`, the TGI with UO-31 renal, in the experiment with ACHN renal, with SK-MEL-28 melanoma, with NCI-H226 lung, in the experiment on OVCAR-8 ovarian and in the experiment with SF-539 CNS was greater than 100 µM each time. Also, in the experiment on TK-10 renal, the TGI was greater than 100 µM.
`OC1OC2COC(c3ccccc3)OC2C(O)C1O` (stereo unspecified): the TGI in the experiment on UO-31 renal, in the experiment with ACHN renal, in the experiment on NCI-H226 lung, in the experiment with OVCAR-8 ovarian, with SF-539 CNS and in the experiment on TK-10 renal was greater than 100 µM each time. The TGI in the experiment on CCRF-CEM leukemia was greater than 100 µM.
Consider `Nc1c(-c2ccc(-c3c(N)[n+]([O-])c4ccccc4[n+]3[O-])cc2)[n+]([O-])c2ccccc2[n+]1[O-]`, for which the TGI in the experiment with UO-31 renal is 32.6 µM; with ACHN renal, 31.1 µM; with SK-MEL-28 melanoma it was 20.9 µM; in the experiment on NCI-H226 lung, 45 µM; with OVCAR-8 ovarian, greater than 100 µM; in the experiment on SF-539 CNS, 18.2 µM. The TGI in the experiment with TK-10 renal is 32.1 µM; in the experiment on CCRF-CEM leukemia, greater than 100 µM.
In the case of `Fc1cccc(C2SCc3nc4ccccc4n32)c1` (stereo unspecified), the TGI with UO-31 renal was greater than 100 µM; in the experiment with ACHN renal it was greater than 100 µM; in the experiment on SK-MEL-28 melanoma it was greater than 10 µM; in the experiment with NCI-H226 lung it was greater than 100 µM; in the experiment with OVCAR-8 ovarian it was greater than 100 µM; with SF-539 CNS it was greater than 100 µM. Moreover, the TGI was greater than 10 µM with TK-10 renal and greater than 100 µM in the experiment with CCRF-CEM leukemia.
Consider `O=C(NCCOCCO)c1ccc(O)cc1`, for which the TGI in the experiment on UO-31 renal, with ACHN renal, with SK-MEL-28 melanoma, in the experiment on OVCAR-8 ovarian, in the experiment with SF-539 CNS and in the experiment on TK-10 renal was greater than 100 µM throughout. The TGI with CCRF-CEM leukemia was greater than 100 µM.
`O=c1cc(/C=C/c2ccccc2)c2ccc(O/C(=C\c3ccccc3)c3nc4ccccc4c(=O)o3)cc2o1`: the TGI was 61.7 µM in the experiment on ACHN renal; 34.5 µM in the experiment with SK-MEL-28 melanoma; greater than 100 µM in the experiment with OVCAR-8 ovarian; 63.2 µM with SF-539 CNS; greater than 100 µM in the experiment on TK-10 renal; 66.5 µM in the experiment on CCRF-CEM leukemia.
For `NCCCSCC(=O)O`, the TGI in the experiment on UO-31 renal, in the experiment with ACHN renal, with SK-MEL-28 melanoma, in the experiment on NCI-H226 lung, in the experiment on OVCAR-8 ovarian and in the experiment on SF-539 CNS was greater than 100 µM throughout. The TGI in the experiment on TK-10 renal was greater than 100 µM.
Turning to `CC(=O)Oc1cc(OC(C)=O)c(OC(C)=O)c2c1CC1C(=O)C3(CCc4ccccc43)C(=O)C1C2` (stereo unspecified), the TGI came to 36.6 µM with UO-31 renal; 26.2 µM in the experiment on ACHN renal; 36.5 µM with SK-MEL-28 melanoma; 36.7 µM with OVCAR-8 ovarian; 31.7 µM with TK-10 renal; 75.9 µM in the experiment on CCRF-CEM leukemia.
In the case of `C=C1[C@@H]2CCC(C)(C)[C@H]1CCC(=O)[C@@H]2C(=O)OC`, the TGI in the experiment with UO-31 renal, in the experiment on ACHN renal, in the experiment with SK-MEL-28 melanoma, with NCI-H226 lung, with OVCAR-8 ovarian and in the experiment with SF-539 CNS was greater than 100 µM in each case. Also, the TGI in the experiment on TK-10 renal and in the experiment with CCRF-CEM leukemia was greater than 100 µM in each case.
As for `CCN(CC)[C@@H]1c2cc3c(cc2C(c2cc(OC)c(O)c(OC)c2)C2C(=O)CO[C@@H]21)OCO3` (stereo partly specified), the TGI in the experiment with UO-31 renal, in the experiment with ACHN renal, in the experiment with SK-MEL-28 melanoma, in the experiment with NCI-H226 lung, in the experiment on OVCAR-8 ovarian and with SF-539 CNS was greater than 100 µM throughout. Moreover, the TGI in the experiment on TK-10 renal and in the experiment with CCRF-CEM leukemia was greater than 100 µM in each case.
With `O=C1OC(/C=C/c2ccccc2)C(=O)C1=O` (stereo unspecified), the TGI in the experiment with UO-31 renal, in the experiment on ACHN renal, in the experiment on SK-MEL-28 melanoma, in the experiment on NCI-H226 lung, in the experiment with SF-539 CNS and in the experiment with TK-10 renal was greater than 100 µM in each case. Further, in the experiment with CCRF-CEM leukemia, the TGI is greater than 100 µM.
Turning to `OC1/C(=C/c2ccccc2)CNC/C1=C\c1ccccc1` (stereo unspecified), the TGI with UO-31 renal, in the experiment with ACHN renal, with SK-MEL-28 melanoma, in the experiment with OVCAR-8 ovarian, in the experiment on SF-539 CNS and with TK-10 renal was greater than 100 µM throughout. This compound had a TGI in the experiment with CCRF-CEM leukemia greater than 100 µM.
As for `CCCCCCCCCCCC(=O)[O][Sn]([CH2]CCC)([CH2]CCC)[CH2]CCC`, the GI50 in the experiment with UO-31 renal was 34.7 nM; in the experiment with ACHN renal, 59.6 nM; in the experiment on SK-MEL-28 melanoma it was 64.9 nM; in the experiment on OVCAR-8 ovarian, 84.2 nM; with BT-549 breast, 62.3 nM; in the experiment on SF-539 CNS, 60.9 nM. Besides, in the experiment with TK-10 renal, the GI50 was 27.1 nM. For the same compound, the TGI with UO-31 renal was found to be 0.0849 µM; with ACHN renal it was 0.157 µM; in the experiment on SK-MEL-28 melanoma, 0.179 µM; with OVCAR-8 ovarian, 0.363 µM; in the experiment with BT-549 breast it was 184 nM; in the experiment on SF-539 CNS it was 0.141 µM. Further, the TGI in the experiment on TK-10 renal came out at 0.0677 µM.
With `CC(=O)c1ccc(-c2ccc(C(C)=O)s2)s1`, the TGI in the experiment with UO-31 renal is greater than 100 µM; in the experiment on ACHN renal, greater than 100 µM; with SK-MEL-28 melanoma, 3.24 µM; in the experiment on NCI-H226 lung, greater than 100 µM; in the experiment with OVCAR-8 ovarian, greater than 100 µM; in the experiment with SF-539 CNS, greater than 100 µM. In addition, the TGI in the experiment with TK-10 renal and in the experiment on CCRF-CEM leukemia was greater than 100 µM each time.
